JPH10251228A, “ニューロキニンアンタゴニストとしてのピペリジン誘導体” (Schering Plough Corp, priority 1997, dated 1998)
Where two headings read alike, the source gives them in different places.

Legend:
[1] = target: T1, human NK-2 receptor (ヒトNK-2レセプター) (Homo sapiens, UniProt P21452); test: Neurokinin receptor binding assay, human NK2 ([3H]-neurokinin A displacement, transfected CHO cell membranes)
T1 construct: expressed in transfected cells; host or cells: Chinese hamster ovary (CHO) cells, G418-selected; membranes prepared
T1 sequence (P21452 1-398): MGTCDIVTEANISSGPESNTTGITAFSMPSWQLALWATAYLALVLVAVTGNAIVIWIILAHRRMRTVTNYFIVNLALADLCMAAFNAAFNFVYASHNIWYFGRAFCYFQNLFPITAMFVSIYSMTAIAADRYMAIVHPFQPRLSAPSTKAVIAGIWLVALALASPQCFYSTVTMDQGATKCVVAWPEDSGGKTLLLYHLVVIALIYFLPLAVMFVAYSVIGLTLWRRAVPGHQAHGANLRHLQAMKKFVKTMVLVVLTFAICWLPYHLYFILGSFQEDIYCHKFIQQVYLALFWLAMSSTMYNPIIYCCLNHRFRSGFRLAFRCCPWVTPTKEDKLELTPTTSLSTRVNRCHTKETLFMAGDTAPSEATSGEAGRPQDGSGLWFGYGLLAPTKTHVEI

[2] = target: T2, human NK-1 receptor (ヒトNK-1レセプター) (Homo sapiens, UniProt P25103); test: Neurokinin receptor binding assay, human NK1 ([3H]-substance P displacement, transfected CHO cell membranes)
T2 construct: expressed in transfected cells; host or cells: Chinese hamster ovary (CHO) cells, G418-selected; membranes prepared
T2 sequence (P25103 whole entry): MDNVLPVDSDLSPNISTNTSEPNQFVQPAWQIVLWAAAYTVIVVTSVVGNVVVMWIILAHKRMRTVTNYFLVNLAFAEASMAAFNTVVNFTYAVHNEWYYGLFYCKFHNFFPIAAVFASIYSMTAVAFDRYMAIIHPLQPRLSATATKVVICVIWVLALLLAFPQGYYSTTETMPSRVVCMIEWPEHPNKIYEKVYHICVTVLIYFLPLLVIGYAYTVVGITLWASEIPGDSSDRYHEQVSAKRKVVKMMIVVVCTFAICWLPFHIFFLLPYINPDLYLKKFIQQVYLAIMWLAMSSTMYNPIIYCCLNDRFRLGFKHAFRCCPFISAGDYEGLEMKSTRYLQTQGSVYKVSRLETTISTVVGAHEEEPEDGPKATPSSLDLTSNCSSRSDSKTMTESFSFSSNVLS

[3] = neurokinin receptor binding assay, [3H]-neurokinin A 1.0 nM, CHO membranes, Cheng-Prusoff, read-out: NK2 Ki (binding)

**Q.** Which Ki [1] does the source give for `CN(C(=O)CC(CCN1CCC(O)(c2ccccc2)CC1)c1ccc(Cl)c(Cl)c1)c1ccccc1` (stereo not drawn) [β-(3,4-ジクロロフェニル)-4-ヒドロキシ-N-メチル-N,4-ジフェニル-1-ピペリジンペンタミド] here?
**A.** The Ki was 5.2 nM.

**Q.** And the Ki ([2]; neurokinin receptor binding assay, [3H]-substance P 0.8 nM, CHO membranes, Cheng-Prusoff, read-out: NK1 Ki (binding))?
**A.** Its Ki is 150 nM.

**Q.** For `CN(Cc1ccccc1)C(=O)CC(CCN1CCC(O)(c2ccccc2)CC1)c1ccc(Cl)c(Cl)c1` (stereo not drawn) [β-(3,4-ジクロロフェニル)-4-ヒドロキシ-N-メチル-4-フェニル-N-(フェニルメチル)-1-ピペリジンペンタミド], which Ki [1, 3] is on record?
**A.** The Ki was 108 nM.

**Q.** What about the Ki [2] of the same compound?
**A.** The Ki was 6.8 nM.

**Q.** What does the source list for `COc1ccccc1CN(C)C(=O)CC(CCN1CCC(O)(c2ccccc2)CC1)c1ccc(Cl)c(Cl)c1` (stereo not drawn) [β-(3,4-ジクロロフェニル)-4-ヒドロキシ-N-[(2-メトキシフェニル)メチル]-N-メチル-4-フェニル-1-ピペリジンペンタミド]?
**A.** Ki [1]: 33 nM; Ki [2]: 7.5 nM

**Q.** Which results are given for `COc1cccc(CN(C)C(=O)CC(CCN2CCC(O)(c3ccccc3)CC2)c2ccc(Cl)c(Cl)c2)c1` (stereo not drawn) [β-(3,4-ジクロロフェニル)-4-ヒドロキシ-N-[(3-メトキシフェニル)メチル]-N-メチル-4-フェニル-1-ピペリジンペンタミド]?
**A.** Ki [1, 3]: 215 nM; Ki [2]: 12 nM

**Q.** `CN(CCc1ccccc1)C(=O)CC(CCN1CCC(O)(c2ccccc2)CC1)c1ccc(Cl)c(Cl)c1` (stereo not drawn) [β-(3,4-ジクロロフェニル)-4-ヒドロキシ-N-メチル-4-フェニル-N-(2-フェニルエチル)-1-ピペリジンペンタミド] was tested. Which Ki [1] did it give?
**A.** The Ki was 46 nM.

**Q.** What about the Ki [2] of the same compound?
**A.** Its Ki is 70 nM.
